This is an account of results in US20120196927A1, “PROPHYLACTIC AND/OR THERAPEUTIC AGENT FOR METABOLIC SYNDROME” (priority 2009, published 2012).

For data set [1], the system named is C57BL/6J-ob/ob mice. In kind it is in vivo, mouse. To be noted: p.o. daily 5 weeks, nobiletin 200 mg/kg/day (No200), Pioglitazone 30 mg/kg/day (P30).
Description: (§6) Diabetes model mice and the experimental system were as follows. As the diabetes model mice, 7 week age of male C57BL/6J-ob/ob (hereinafter, it was referred to as “ob/ob”) were purchased from Charles River Laboratories Japan Inc., and used as 10 mice/group.
For the negative control group (from FIGS. 5 to 10, it was shown as Vehicle; hereinafter, it is referred to as “solvent administration group”), 0.3% of CMC aqueous solution was administrated orally for 5 weeks in everyday at the dosage of 0.01 mL/g body weight. For the positive control group (in FIGS. 5 to 10 and hereinafter, it was referred to as “P30 administrated group”), 3 mg of Pioglitazone was suspended in 0.3% CMC aqueous solution so as to be orally administrated at the dosage of 0.01 mL/g body weight for 5 weeks in everyday (dosage: 30 mg/kg body weight/day).
For the sample ingestion group (in FIGS. 5 to 10 and hereinafter, it is referred to as “No200 ingestion group”), 20 mg of nobiletin purified as mentioned above (1) was suspended in 0.3% of carboxymethylcellulose (CMC) aqueous solution so as to be orally administrated at the dose of 0.01 mL/g body weight for 5 weeks in everyday (the dose: 200 mg/kg/day).
The body weight of mice, ingestion amount, weight of the white adipose tissue and liver weight of each mice were measured as the same as described in the example 3.
The subject of data set [2] is C57BL/6J-ob/ob mice. The experiment in a line: Diabetes model mice: fasting blood glucose level. In kind it is in vivo, mouse. To be noted: nobiletin 200 mg/kg/day, Pioglitazone 30 mg/kg/day p.o. As for the experimental part:
Two weeks or 5 weeks from the beginning of the administration, the fasting blood glucose was measured (n=10). The measurement of the blood glucose level was carried out as the same as that of the example 1.

Data set [3] has as its system C57BL/6J-ob/ob mice. The data set can be described thus: Diabetes model mice: oral glucose tolerance test (OGTT). The format is in vivo, mouse. To be noted: nobiletin 200 mg/kg/day, Pioglitazone 30 mg/kg/day. On the procedure:
The oral glucose tolerance test (OGTT) for the diabetes model mice (ob/ob) to which the nobiletin and others were administrated was subjected to the glucose tolerance test for studying the effects.
From 4 weeks after the start of the administration, the mice in each group were fasted for 16 hours, and then they were administrated 2 g/kg body weight of glucose per os. After the administration of glucose, […] of blood was collected from the tail vein at the time point of 0, 30, 60 and 120 minutes. Collected blood was centrifuged at 4° C., 3,000×g, for 15 minute to obtain plasma (n=10). The blood glucose level was measured as the same as that described in the example 1.

Data set [4] has as its system GLUT4, Adiponectin, TNF-α, MCP-1, IL-6, PPARγ, aP2, LPL, Perilipin genes. The data set can be described thus: Diabetes model mice: mRNA expression in the white adipose tissue (real time RT-PCR). In kind it is in vivo, mouse. To be noted: ob/ob mice, Vehicle = 1.00, nobiletin 200 mg/kg/day, Pioglitazone 30 mg/kg/day, 5 weeks. On the procedure: (§1) The effects by nobiletin ingestion to the mRNA expression in the white adipose tissue and the liver were measured (n=10).
(§2) After the termination of the administration period for 5 weeks, mRNA expression levels of respective genes shown in the table 10 were determined by using real time RT-PCR method. The real time RT-PCR was carried out according to an operation manual provided by ISOGEN (NIPPON GENE CO., LTD); RNA was extracted from the white adipose tissue and the liver. Next, cDNA was prepared from using 1 μg of RNA by using Reverse Transcription System kit (Promega Corp., USA). Next, suitable primers for the above-mentioned genes were prepared according to the operation manual provided by FastStart universal SYBR (a registered trademark) Greenmaster PCR KIT agent (Roche Diagnostics K. K., Germany).
(§3) Real time PCR system 7700HT (Applied Biosytems, USA) was used for the determination to carry out the real time PCR by using the cDNAs as templates. Each reaction conditions were set according to the manual of the PCR KIT. Quantitative analysis of the RNA amount was carried out based on comparative Ct method by using glyceraldehyde 3-phosphate dehydrogenase (GAPDH) as the standard reference.
(Real-time PCR tracks product formation cycle by cycle.)

Data set [5] relates to gluconeogenesis-related genes PEPCK, G6Pase. The data set can be described thus: Diabetes model mice: mRNA expression in the liver (real time RT-PCR). To be noted: ob/ob mice, Vehicle = 1.00, nobiletin 200 mg/kg/day, Pioglitazone 30 mg/kg/day, 5 weeks. The format is in vivo, mouse. On the procedure:
as §1, §2, §3

The subject of another data set is GLUT4 protein. The experiment in a line: Diabetes model mice: GLUT4 protein expression level (Western blotting). The format is in vivo, mouse. To be noted: ob/ob mice, nobiletin 200 mg/kg/day, Pioglitazone 30 mg/kg/day. As for the experimental part: After finishing the experiment, the white adipose tissue and skeletal muscle were excised according to that described in the example 1, protein expression level of GLUT 4 were detected by using Western blotting method. The expression levels of GLUT4 protein were determined by using Na^+/K^+ ATPase α-1 protein as an internal reference.
In general terms: In western blotting, separated proteins are transferred to a membrane and probed.

Data set [6] deals with C57BL/6J-ob/ob mice. To be noted: nobiletin 200 mg/kg/day, Pioglitazone 30 mg/kg/day, 5 weeks.
Description: as §6
For the negative control group (from FIGS. 5 to 10, it was shown as Vehicle; hereinafter, it is referred to as “solvent administration group”), 0.3% of CMC aqueous solution was administrated orally for 5 weeks in everyday at the dosage of 0.01 mL/g body weight. For the positive control group (in FIGS. 5 to 10 and hereinafter, it was referred to as “P30 administrated group”), 3 mg of Pioglitazone was suspended in 0.3% CMC aqueous solution so as to be orally administrated at the dosage of 0.01 mL/g body weight for 5 weeks in everyday (dosage: 30 mg/kg body weight/day). […]
The blood insulin level was measured as described in below. […] As lipids in plasma, concentrations of neutral fat (TG) and total cholesterol (T-CHO) were measured. Plasma insulin level was measured by using rebis insulin mouse (type U) (Shibayagi Co. Ltd.) based on the enzyme-immunoassay.
Data set [7] deals with C57BL/6 male mice. The experiment in a line: Tangeretin, obesity-induced mice: body weight gain and ingestion amount. In kind it is in vivo, mouse. To be noted: HFD obesity-induced C57BL/6 mice. The text has this: (§4) Six week age of C57BL/6 male mice were preliminary kept for 1 week (−9 to −8 week), and then classified into three groups. […] was given to one group, and HFD was given to other two groups, for 8 weeks (−8 to +5 week). From 8 weeks (15 week age) to 13 weeks, the following agents were given to each group for 5 weeks per os (hereinafter, they were referred to as LFD administration group and HFD administration group in the Example 6). The compositions of the LFD or HFD were the same as those in the Example 3.
(§5) To the LFD administration group (n=8) and the HFD administration group (n=11), 0.3% CMC aqueous solution was given at the amount of 0.01 mL/g of the body weight. […] The schedule of the feed ingestion and the agent administration of the above-mentioned 3 groups were schematically shown in FIG. 12A.
The ingestion amount of the mice in each group was measured twice a week. The ingestion amounts in 24 hours/3 mice/cage were measured and obtained as mean average of each group for 5 weeks.

The subject of data set [8] is C57BL/6 male mice. The experiment in a line: Tangeretin, obesity-induced mice: tissue weight. The format is in vivo, mouse. To be noted: HFD obesity-induced mice, tangeretin 200 mg/kg/day p.o. 5 weeks.
Description: as §4, §5
After the completion of the experiment, the mice in each group were dissected to excise organs and so forth to measure their weight. The white adipose tissue was excised from retroperitoneum and periphery of epididymis.

The subject of data set [9] is C57BL/6 male mice. The data set can be described thus: Tangeretin, obesity-induced mice: blood TG and T-CHO level. The format is in vivo, mouse. To be noted: fasting, tangeretin 200 mg/kg/day p.o., HFD. On the procedure: After the completion of the experiment, blood neutral fat level in fasting state was measured at the time points of beginning of the experiment, two and five weeks after the administration.
The blood neutral fat (TG) level was measured as the same as that employed in the example 1.
The total cholesterol (T-CHO) level in blood was measured as the same as that in the Example.

Data set [10] concerns C57BL/6 male mice. The experiment in a line: Tangeretin, obesity-induced mice: blood glucose in fasting state. In kind it is in vivo, mouse. To be noted: tangeretin 200 mg/kg/day p.o., HFD. On the procedure: The blood glucose level was measured as the same as that of the example 1. […] As mentioned above, it was shown that tangeretin has the inhibition effects of the blood glucose level in the fasting state when the high fat diet was ingested.

Data set [11] concerns C57BL/6 male mice. The data set can be described thus: Tangeretin, obesity-induced mice: oral glucose tolerance test (OGTT). In kind it is in vivo, mouse. To be noted: tangeretin 200 mg/kg/day p.o., HFD. On the procedure:
The oral glucose tolerance test (OGTT) was carried out as the same as that in the example 1.

The subject of data set [12] is GLUT4 gene and PPARγ gene. The experiment in a line: Tangeretin, obesity-induced mice: mRNA expression of GLUT4 and PPARγ (real time RT-PCR). In kind it is in vivo, mouse. To be noted: HFD = 1, tangeretin 200 mg/kg/day p.o. 5 weeks. As for the experimental part: mRNA expression level was determined by using real time PCR as follows. According to the direction attached with ISOGEN (Nippon Gene Co., Ltd), RNA was extracted from white adipose tissue, liver, and skeletal muscle. Next, cDNA was prepared from 1 μg of RNA by using Reverse Transcription System kit (Promega, USA). Subsequently, according to the direction attached with FastStart universal SYBR (Registered trademark) Greenmaster PCR kit reagent (Roche Diagnostics, Germany), primers suitable for each intended gene in the following experiments were synthesized. Real time PCR system 7700 HT (Applied Biosytems, USA) was used for the measurement, the cDNA was used as templates for the real time PCR. Reaction conditions were followed to those for the PCR kit reagents. Quantitative analysis of RNA level was performed by Comparison Ct method, using glyceraldehyde 3-phosphate dehydrogenase (GAPDH) as the standard.
As the same as that in the Example 1, after the completion of the experiment, the white adipose tissue was excised to determine the both mRNA expression levels of GLUT4 gene mRNA and PPARγ gene by using the real time RT-PCR. Ratios of the expression levels when that of the HFD is 1 were shown in the table 18 and FIGS. 11A and 11B.

[13] abbreviates: Western blotting, Vehicle = 1.00, 5 weeks.

Structures are written as SMILES.

On to `CCc1ccc(CCOc2ccc(CC3SC(=O)NC3=O)cc2)nc1` (stereo not shown) [Pioglitazone, reference compound], for which, in the data set with C57BL/6J-ob/ob mice [1], the Gained body weight is reported as 10.83 ± 0.58 g and the white adipose tissue was 5.70 ± 0.17 g. Moreover, the “Blood glucose level (fasting)” value with C57BL/6J-ob/ob mice [2] (0 week after administration) was found to be 183.61 ± 16.51 mg/dL. Besides, the “Blood glucose level (fasting)” value in the data set on C57BL/6J-ob/ob mice [2] (2 weeks after administration) worked out at 132.50 ± 7.86 mg/dL. Also, the “Blood glucose level (fasting)” value in the data set with C57BL/6J-ob/ob mice [2] (5 weeks after administration) turned out to be 144.67 ± 8.96 mg/dL. Moreover, in the data set with C57BL/6J-ob/ob mice [3] (0 min after 2 g/kg glucose p.o.), the “Blood glucose level (OGTT)” value was 144.67 ± 8.96 mg/dL. The “Blood glucose level (OGTT)” value in the data set on C57BL/6J-ob/ob mice [3] (30 min after 2 g/kg glucose p.o.) was determined as 273.55 ± 14.15 mg/dL. In the data set with C57BL/6J-ob/ob mice [3] (60 min after 2 g/kg glucose p.o.), the “Blood glucose level (OGTT)” value was determined as 170.60 ± 4.45 mg/dL. Besides, the “Blood glucose level (OGTT)” value with C57BL/6J-ob/ob mice [3] (120 min after 2 g/kg glucose p.o.) was 175.79 ± 18.06 mg/dL. For the same compound, in data set [4], the “Gene expression level (ratio), [W]Adiponectin” value was determined as 1.58 ± 0.02; the “Gene expression level (ratio), [W]GLUT4” value worked out at 1.15 ± 0.02; the “Gene expression level (ratio), [W]IL-6” value is on record as 0.19 ± 0.12; the “Gene expression level (ratio), [W]LPL” value was 0.93 ± 0.04. Further, in [4], the “Gene expression level (ratio), [W]MCP-1” value is reported as 0.44 ± 0.10; the “Gene expression level (ratio), [W]PPARγ” value was determined as 1.13 ± 0.02; the “Gene expression level (ratio), [W]Perilipin” value is recorded as 1.37 ± 0.13; the “Gene expression level (ratio), [W]TNF-α” value stood at 1.08 ± 0.01. Also, the “Gene expression level (ratio), [W]aP2” value in [4] was found to be 2.03 ± 0.01. Further, in [5], the “Gene expression level (ratio), [L]G6Pase” value is listed as 0.23 ± 0.04 and the “Gene expression level (ratio), [L]PEPCK” value amounted to 0.57 ± 0.01. Also, in the data set with GLUT4 protein (setting [13]), the “Gene expression level (ratio), Skeletal muscle (GLUT4 protein)” value is on record as 3.15 and the “Gene expression level (ratio), White adipose tissue (GLUT4 protein)” value is on record as 2.24. In addition, in the data set on GLUT4 protein, the “GLUT4 protein expression amount in the skeletal muscle, times higher than vehicle administration group” value was ~3 times and the “GLUT4 protein expression level in the white adipose tissue, times higher than vehicle administration group” value is 2.2 times. Moreover, the “Adiponectin level in blood, times higher than solvent administration group” value in the data set with C57BL/6J-ob/ob mice [6] is on record as ≥ 2.5 times.

The compound `COc1ccc(-c2cc(=O)c3c(OC)c(OC)c(OC)c(OC)c3o2)cc1` [tangeretin] showed a Body weight gain with C57BL/6 male mice [7] (tangeretin 200 mg/kg/day p.o. 5 weeks (HFD+T200)) of 3.94 ± 0.45 g. In addition, the Ingestion amount in the data set on C57BL/6 male mice [7] (tangeretin 200 mg/kg/day p.o., mean of 5 weeks) came to 2.47 ± 0.24 g/day. Besides, the “Tissue Weight, Kidney” value in the data set on C57BL/6 male mice [8] is 0.31 ± 0.01 g/100 g of body weight. The “Tissue Weight, Liver” value with C57BL/6 male mice [8] was 1.48 ± 0.11 g/100 g of body weight. Besides, the “Tissue weight, Epididymis white adipose tissue” value in the data set with C57BL/6 male mice [8] is given as 0.99 ± 0.12 g/100 g of body weight. Moreover, the “Tissue weight, Retroperitoneum white adipose tissue” value in the data set on C57BL/6 male mice [8] is recorded as 2.38 ± 0.09 g/100 g of body weight. The “Tissue weight, White adipose tissue in total” value in the data set with C57BL/6 male mice [8] is listed as 3.38 ± 0.16 g/100 g of body weight. Also, the figures for the “Blood TG level” value in the data set on C57BL/6 male mice [9] (0 weeks after administration), with C57BL/6 male mice [9] (2 weeks after administration) and in the data set with C57BL/6 male mice [9] (5 weeks after administration) were 108.70 ± 7.75 mg/dL, 107.89 ± 9.46 mg/dL and 105.42 ± 7.54 mg/dL, respectively. The entries for the “Blood glucose level (fasting state)” value with C57BL/6 male mice [10] (time after administration 0 (head prints min.)), in the data set on C57BL/6 male mice [10] (time after administration 2 (head prints min.)) and in the data set with C57BL/6 male mice [10] (time after administration 5 (head prints min.)) were 142.82 ± 7.03 mg/dL, 164.79 ± 9.82 mg/dL and 124.75 ± 7.14 mg/dL, respectively. Besides, the “Blood glucose level (OGTT)” value with C57BL/6 male mice [11] (0 min after glucose) came out at 124.75 ± 7.14 mg/dL; with C57BL/6 male mice [11] (15 min after glucose) it was 347.43 ± 11.82 mg/dL; with C57BL/6 male mice [11] (30 min after glucose), 309.73 ± 17.88 mg/dL; with C57BL/6 male mice [11] (60 min after glucose), 274.14 ± 19.04 mg/dL; with C57BL/6 male mice [11] (120 min after glucose), 265.19 ± 15.82 mg/dL. In addition, the “Expression level (ratio), [M]GLUT4” value in data set [12] (skeletal muscle mRNA) came to 1.72. Also, in data set [12] (white adipose tissue mRNA), the “Expression level (ratio), [W]GLUT4” value is 0.42. Moreover, the “Expression level (ratio), [W]PPARγ” value in data set [12] (white adipose tissue mRNA) came to 0.43.
